The values that follow come from patent publication US10660910B2, “Use of sedoheptulose for prevention or treatment of inflammation” (C7 SUGAR GMBH, priority 2013, dated 2020).

Series [1] has as its system primary human adipocytes. Description: Extracellular acidification and oxygen consumption rates (XF-Analyzer) in human adipocytes. Format: cell-based. To be noted: adipocytes differentiated and cultured in sedoheptulose containing media vs controls. The procedure:
Stromal vascular fraction cells (SVFs) from subcutaneous white adipose tissue of a patient undergoing abdominal surgery were isolated as described before (Lindroos et al, Cell Metab. (2013), July 2; 18(1):62-74.). Briefly, adipose tissue was digested with Collagenase II (Worthington) and filtered. SVFs were separated from mature adipocytes by centrifugation, followed by the lysis of erythrocytes in the SVF-fraction (Buffer EL, Qiagen). The purified SVFs were cultured in DMEM/F12, 10% FBS (Gibco, Life Technologies). As soon as the cells reached confluence, they were washed with DMEM/F12 w/o glucose (Biowest) and the medium was replaced by DMEM/F12 with a total carbohydrate load of 3 g/L, containing 1.5 g/L glucose and fructose or 1 g/L each of glucose, fructose, and sedoheptulose, respectively. […]
The XF-Analyzer (Seahorse Bio.) was used to measure changes in cellular metabolism induced by different carbohydrates. Extracellular acidification rates (ECAR, mpH/min) and oxygen consumption rates (OCR, pmoles/min) were recorded in primary human adipocytes and primary murine hepatocytes according to the manufacture instructions. […] Changes induced by the different carbohydrate sources were expressed as relative change in % to illustrate the effect of each carbon source.

Series [2] has as its system primary human adipocytes. Kind of series: Human adipocyte culture in GF or GFS media, gene expression by RT-PCR. Format: cell-based. The procedure:
Stromal vascular fraction cells (SVFs) from subcutaneous white adipose tissue of a patient undergoing abdominal surgery were isolated as described before (Lindroos et al, Cell Metab. (2013), July 2; 18(1):62-74.). Briefly, adipose tissue was digested with Collagenase II (Worthington) and filtered. SVFs were separated from mature adipocytes by centrifugation, followed by the lysis of erythrocytes in the SVF-fraction (Buffer EL, Qiagen). The purified SVFs were cultured in DMEM/F12, 10% FBS (Gibco, Life Technologies). As soon as the cells reached confluence, they were washed with DMEM/F12 w/o glucose (Biowest) and the medium was replaced by DMEM/F12 with a total carbohydrate load of 3 g/L, containing 1.5 g/L glucose and fructose or 1 g/L each of glucose, fructose, and sedoheptulose, respectively. Two days after confluence (day 0), differentiation was induced by adding 1 μM dexamethasone, 1.74 μM insulin, 5 μM troglitazone, […], 17 μM pantothenic acid and 33 μM biotin. After two days, IBMX and dexamethasone were omitted, while insulin and troglitazone were removed on day 4. 50% of the medium was replaced on day 6. Two days later, the cells were harvested for RNA isolation (RNeasy mini kit, Qiagen).
Briefly, total RNA was extracted and reverse-transcribed using commercial kits (QIAGEN, Applied Biosystems). Quantitative real-time PCRs were performed on an AbiPRISM 7900HT real-time cycler using iTaq SYBR Green Supermix with ROX (BioRad) to measure CARKL, adiponectin, UCP-1, TNFa, IL-6, MCP-1, and beta-actin expression as previously described (Haschemi et al., Cell Metab. 15 (2012), 813-826). Expression of target gene was normalized to beta-actin expression. Relative expression of target gene was calculated by the delta-delta CT method.

Series [3] can be described thus: Glucose and sedoheptulose measurement in human serum before and after carrot meal (GC-MS). Format: in vivo. To be noted: humans, two hours after a meal of mainly steamed carrots (~700 g per male adult) vs overnight fasted, n=4, FIG. 1B. From the text:
Fresh carrots with an Austrian “organic-certificate” were sliced into small pieces and snap-frozen in liquid nitrogen. The same procedure was applied to leaves freshly harvested from indoor-grown Sedum Spectabile plants. Three samples of each tissue were pooled and homogenized to powder by glass-beads. The carbohydrate rich fractions of the samples were isolated by 20% H2O and 80% MeOH extraction solution spiked with 13 C standards and processed for standard gas-chromatography coupled to mass spectrometry (GC-MS). Glucose and sedoheptulose were identified by their individual masses and their relative amount was derived from the peak area of each individual analyte normalized to 13 C content. Glucose and sedoheptulose were also measured in equal volumes of serum from overnight fasted or carrot fed individuals. The carrots were steamed and some olive-oil, salt and pepper were used for flavour. Two hours before and two hours after the carrot containing meal human serum was prepared in VACUETTE® Z Serum Sep tubes from blood. Serum samples were processed as previously described and also analyzed by GC-MS as detailed above and in Ruiz-Matute AI et al., Chromatogr B Analyt Technol Biomed Life Sci. (2011) May 15 879(17-18).

Turning to `O=C(CO)[C@@H](O)[C@H](O)[C@H](O)[C@H](O)CO` [sedoheptulose, Sedoheptulose], the “cellular oxygen consumption rates (OCR)” value in the series on primary human adipocytes [1] (FIG. 3D) is on record as “increased”. In addition, in the series on primary human adipocytes [1] (FIG. 3E), the “extracellular acidification rates (ECAR)” value is “comparable”. Moreover, the “sedoheptulose kinase CARKL mRNA expression” value with primary human adipocytes [2] (GFS media (1 g/L each glucose, fructose, sedoheptulose) vs GF (1.5 g/L each), eight days differentiation, FIG. 3A) is listed as “increase”. For the same compound, the adiponectin expression result with primary human adipocytes [2] (GFS vs GF treated cells, eight days, FIG. 3B) was “increase”. Further, in the series on primary human adipocytes [2] (GFS vs GF treated cells, eight days, FIG. 3C), the UCP-1 expression result is “increase”. In series [3], the “increase in sedoheptulose serum levels” value was “approximately two-fold”.
